Test results published in patent publication US8722849B2, “Polypeptides” (Novo Nordisk A/S, priority 2011, dated 2014).
≈ marks a conversion by molar mass, not a printed value. Where two headings read alike, the source gives them in different places. Starred links: 1 amine or outer side, 2 acyl side, 3 side chain; linkers in the order of their positions; H or OH if unused. Positions of bridges follow the written chain, without caps; N, C: chain ends. Residues, ends and D or L forms follow the SMILES beside them. *: point of attachment. C20 diacid = O=C(O)CCCCCCCCCCCCCCCCCCC(=O)*; γGlu = O=C(O)[C@H](CCC(=O)[*:2])N[*:1]

Experiments:
[1] = target: T1, human calcitonin receptor (Homo sapiens, UniProt P30988); test: Assay (II)a functional CRE-luciferase assay, human calcitonin receptor; format: cell-based; details: Table 7; human calcitonin (CTa) receptor
T1 construct: expressed in transfected cells; host or cells: BHK570
T1 sequence (P30988 25-474): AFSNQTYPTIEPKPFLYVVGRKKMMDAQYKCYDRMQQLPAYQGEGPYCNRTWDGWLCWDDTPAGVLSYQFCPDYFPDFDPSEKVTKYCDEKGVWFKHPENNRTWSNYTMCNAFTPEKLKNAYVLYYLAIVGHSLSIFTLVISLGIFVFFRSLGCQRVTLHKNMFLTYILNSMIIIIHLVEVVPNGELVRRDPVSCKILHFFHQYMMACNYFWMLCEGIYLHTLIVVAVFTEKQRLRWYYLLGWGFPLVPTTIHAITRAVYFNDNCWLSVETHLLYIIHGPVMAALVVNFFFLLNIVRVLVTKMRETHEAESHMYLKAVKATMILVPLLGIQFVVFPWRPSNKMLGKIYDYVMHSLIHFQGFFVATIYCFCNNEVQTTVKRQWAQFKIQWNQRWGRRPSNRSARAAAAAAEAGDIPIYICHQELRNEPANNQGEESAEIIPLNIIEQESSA

[2] = Assay (IV) determination of solubility; format: physicochemical
Procedure, shortened: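 Solubility is measured across pH 3.0–8.0 by mixing a ~500 nmol/ml aqueous polypeptide stock 1:1 with 100 mM glycylglycine or bistrispropane buffers. Samples stand 18 hours at room temperature, then are centrifuged and the soluble concentration is determined by HPLC.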

[3] = target: T2, human amylin receptor (amylin 3(a) receptor: human calcitonin receptor + RAMP-3) (Homo sapiens, UniProt O60896+P30988); test: Assay (II)a functional CRE-luciferase assay, human amylin receptor; format: cell-based
T2 construct: expressed in transfected cells; host or cells: BHK570
T2 sequence (P30988 25-474): T1 sequence (P30988 25-474)
T2 sequence (O60896 24-148 partner): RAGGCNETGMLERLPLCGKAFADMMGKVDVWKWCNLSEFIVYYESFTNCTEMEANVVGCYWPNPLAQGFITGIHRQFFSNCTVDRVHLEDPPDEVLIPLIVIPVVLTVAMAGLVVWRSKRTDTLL

[4] = Assay (III) ThT fibrillation assay for physical stability; format: physicochemical; details: ThT fibrillation assay
Excerpt: ASSAY (III)—ThT Fibrillation Assays for the Assessment of Physical Stability of Protein formulations Low physical stability of a polypeptide may lead to amyloid fibril formation, which is observed as well-ordered, thread-like macromolecular structures in the sample eventually resulting in gel formation. This has traditionally been measured by visual inspection of the sample. However, that kind of measurement is very subjective and depending on the observer. Therefore, the application of a small molecule indicator probe is much more advantageous. Thioflavin T (ThT) is such a probe and has a distinct fluorescence signature when binding to fibrils [Naiki et al. (1989) Anal. Biochem. 177, 244-249; LeVine (1999) Methods. Enzymol. […], 274-284]. The time course for fibril formation can be described by a sigmoidal curve with the following expression [Nielsen et al. (2001) Biochemistry 40, 6036-6046]: [formula] Here, F is the ThT fluorescence at the time t. The constant t0 is the time needed to reach 50% of maximum fluorescence. […] Few of those intermediates nucleate to form a template onto which further intermediates may assembly and the fibrillation proceeds. The lag-time corresponds to the interval in which the critical mass of nucleus is built up and the apparent rate constant is the rate with which the fibril itself is formed. Sample Preparation Samples were prepared freshly before each assay. Each sample composition is described in each example. The pH of the sample was adjusted to the desired value using appropriate amounts of concentrated NaOH and HClO4 or HCl. Thioflavin T was added to the samples from a stock solution in H2O to a final concentration of 1 μM. Sample aliquots of 200 μl were placed in a 96 well microtiter plate (Packard OptiPlate™-96, white polystyrene). Usually, four or eight replica of each sample (corresponding to one test condition) were placed in one column of wells. The plate was sealed with Scotch Pad (Qiagen). Incubation and Fluorescence Measurement Incubation at given temperature, shaking and measurement of the ThT fluorescence emission were done in a Fluoroskan Ascent FL fluorescence platereader or Varioskan platereader (Thermo Labsystems). The temperature was adjusted to 37° C. The orbital shaking was adjusted to 960 rpm with an amplitude of 1 mm in all the presented data. Fluorescence measurement was done using excitation through a 444 nm filter and measurement of emission through a 485 nm filter. Each run was initiated by incubating the plate at the assay temperature for 10 min. The plate was measured every 20 minutes for a desired period of time. Between each measurement, the plate was shaken and heated as described. Data Handling The measurement points were saved in Microsoft Excel format for further processing and curve drawing and fitting was performed using GraphPad Prism. The background emission from ThT in the absence of fibrils was negligible. The data points are typically a mean of four or eight samples and shown with standard deviation error bars. Only data obtained in the same experiment (i.e. samples on the same plate) are presented in the same graph ensuring a relative measure of fibrillation between experiments. The data set may be fitted to Eq. (1). However, since full sigmodial curves in this case are not always achieved during the measurement time, the degree of fibrillation is expressed as ThT fluorescence tabulated as the mean of the samples and shown with the standard deviation at various time points. Measurement of Initial and Final Concentrations The polypeptide concentration in each of the tested formulations were measured both before application in the ThT fibrillation assay (“Initial”) and after completion of the ThT fibrillation (“After ThT assay”). Concentrations were determined by reverse HPLC methods using a pramlintide standard as a reference. Before measurement after completion 150 μl was collected from each of the replica and transferred to an Eppendorf tube. […]

SMILES: CC[C@H](C)[C@H](NC(=O)[C@@H]1CCCN1C(=O)CNC(=O)[C@H](Cc1ccccc1)NC(=O)[C@H](CC(N)=O)NC(=O)[C@H](CC(N)=O)NC(=O)[C@H](CO)NC(=O)[C@H](CO)NC(=O)[C@H](CCCNC(=N)N)NC(=O)[C@H](Cc1c[nH]cn1)NC(=O)[C@H](CC(C)C)NC(=O)[C@H](Cc1ccccc1)NC(=O)[C@H](CCC(=O)O)NC(=O)[C@H](C)NC(=O)[C@H](CC(C)C)NC(=O)[C@H](CCCNC(=N)N)NC(=O)[C@H](CCC(N)=O)NC(=O)[C@@H](NC(=O)[C@H](C)NC(=O)[C@@H]1CSSC[C@H](NC(=O)[C@H](CCC(=O)O)NC(=O)CC[C@H](NC(=O)CCCCCCCCCCCCCCCCCCC(=O)O)C(=O)O)C(=O)N[C@@H](CC(N)=O)C(=O)N[C@@H]([C@@H](C)O)C(=O)N[C@@H](C)C(=O)N[C@@H]([C@@H](C)O)C(=O)N1)[C@@H](C)O)C(=O)N[C@@H](CC(C)C)C(=O)N1CCC[C@H]1C(=O)N1CCC[C@H]1C(=O)N[C@H](C(=O)N[C@@H](CC(N)=O)C(=O)N[C@H](C(=O)NCC(=O)N[C@@H](CO)C(=O)N[C@@H](CC(N)=O)C(=O)N[C@H](C(=O)N[C@@H](Cc1ccc(O)cc1)C(N)=O)[C@@H](C)O)C(C)C)[C@@H](C)O [Example 5, N-alpha-[(S)-4-Carboxy-4-(19-carboxynonadecanoylamino)butyryl]-[Glu1,Glu14,His17,Arg18]-pramlintide] ({C20 diacid-γGlu}-ECNTATCATQRLAEFLHRSSNNFGPILPPTNVGSNTY-NH2; disulfide 2-7 (inferred); C-terminus assumed)
- EC50 [1]: 1.65 nM
- solubility at 18 h ([2]; pH 3.0, read-out: Solubility pH 3.0): >200 µM
- Solubility pH 4.0 (μM) ([2]; pH 4.0, 18 hours at room temperature, Table 2): >200 μM
- solubility at 18 h ([2]; pH 4.0, read-out: Solubility pH 4.0): >200 µM
- solubility at 18 h ([2]; pH 5.0, read-out: Solubility pH 5.0): 62 µM (≈ 278 µg/mL)
- solubility at 18 h ([2]; pH 6.0, read-out: Solubility pH 6.0): 164 µM (≈ 734 µg/mL)
- solubility at 18 h ([2]; pH 6.5, read-out: Solubility pH 6.5): 181 µM (≈ 810 µg/mL)
- Solubility pH 7.0 (μM) ([2]; pH 7.0, 18 hours at room temperature, Table 3): >200 μM
- solubility at 18 h ([2]; pH 7.0, read-out: Solubility pH 7.0): >200 µM
- solubility at 18 h ([2]; pH 7.5, read-out: Solubility pH 7.5): >200 µM
- solubility at 18 h ([2]; pH 8.0, read-out: Solubility pH 8.0): >200 µM
- EC50 ([3]; Table 2, BHK amylin 3(a)-receptor/CRE-luc cells): 0.353 nM
- ThT pH 4.0 lag time (h) [4]: 4.4 h

SMILES: CC[C@H](C)[C@H](NC(=O)[C@@H]1CCCN1C(=O)CNC(=O)[C@H](Cc1ccccc1)NC(=O)[C@H](CC(N)=O)NC(=O)[C@H](CC(N)=O)NC(=O)[C@H](CO)NC(=O)[C@H](CO)NC(=O)[C@H](Cc1c[nH]cn1)NC(=O)[C@H](CCCNC(=N)N)NC(=O)[C@H](CC(C)C)NC(=O)[C@H](Cc1ccccc1)NC(=O)[C@H](CCC(=O)O)NC(=O)[C@H](C)NC(=O)[C@H](CC(C)C)NC(=O)[C@H](CCCNC(=N)N)NC(=O)[C@H](CCC(N)=O)NC(=O)[C@@H](NC(=O)[C@H](C)NC(=O)[C@@H]1CSSC[C@H](NC(=O)[C@H](CCCNC(=N)N)NC(=O)[C@H](CCC(=O)O)NC(=O)CC[C@H](NC(=O)CCCCCCCCCCCCCCCCCCC(=O)O)C(=O)O)C(=O)N[C@@H](CC(N)=O)C(=O)N[C@@H]([C@@H](C)O)C(=O)N[C@@H](C)C(=O)N[C@@H]([C@@H](C)O)C(=O)N1)[C@@H](C)O)C(=O)N[C@@H](CC(C)C)C(=O)N1CCC[C@H]1C(=O)N1CCC[C@H]1C(=O)N[C@H](C(=O)N[C@@H](CC(N)=O)C(=O)N[C@H](C(=O)NCC(=O)N[C@@H](CO)C(=O)N[C@@H](CC(N)=O)C(=O)N[C@H](C(=O)N1CCC[C@H]1C(N)=O)[C@@H](C)O)C(C)C)[C@@H](C)O [Example 156, N-alpha-[(S)-4-Carboxy-4-(19-carboxynonadecanoylamino)butyryl]-Glu-[Arg1,Glu14,Arg17,Pro37]-pramlintide] ({C20 diacid-γGlu}-ERCNTATCATQRLAEFLRHSSNNFGPILPPTNVGSNTP-NH2; disulfide 3-8 (inferred))
- EC50 [1]: 0.168 nM
- EC50 ([3]; Table 5): 0.066 nM
- ThT pH 4.0 lag time [4]: >45 h
- ThT pH 4.0 lag time (h) [4]: >45 h
